The values below come from patent publication US20070264194A1, “Peptides That Bind To Atherosclerotic Lesions” (The Scripps Research Institute, priority 2001, published 2007).

The subject of one assay is HUVEC endothelial cells. The assay is described as follows: Peptide binding assay, HUVEC. The format is cell-based, human. Particulars: serial peptide concentrations, biotinylated synthetic peptides. As to the method:
(§1) Human umbilical cord venous endothelial cells (HUVEC) and EGM™ culture medium were from Clonetics, Walkersville, Md. Cells were cultivated in EGM with 5% fetal bovine serum (FBS) in flasks coated with 0.2% gelatin. The bEND.3 cells (ATCC) were cultured in Dulbecco's minimum essential medium (DMEM) (Invitrogen, Carlsbad, Calif.) supplemented with 10% FBS and 2 mM L-glutamine. The HT1080 cells were from ATCC and cultured in DMEM supplemented with 10% FBS, 2 mM L- glutamine, 1.5 g/L sodium bicarbonate, and 0.1 mM NEAA (Non-essential amino acids, Invitrogen, Carlsbad, Calif.). The ECV304 were from ATCC and cultured in DMEM, 10% FBS.
(§2) Analysis of synthetic peptide binding to cells was performed in 96 well plates. Cells (10^5) were plated into each well, incubated overnight then briefly fixed with cold ethanol for 10 seconds. Serial concentrations of peptide in 100 μl PBS were added and incubated at room temperature with gentle shaking for four hours. The wells were washed three times with PBS and reaction developed using strepavidin-peroxidase substrate (Vector, Burlingame, Calif.). The reactions were quantified at 405 nm in a plate reader (Molecular Devices, Sunnyvale, Calif.). In the inhibition assay, TIMP-2 protein was included with the peptide in the initial incubation.

The subject of another assay is fibroblast line HT1080. The assay is described as follows: Peptide binding assay, HT1080. Particulars: not shown. The format is cell-based. As for the experimental part: as §1, §2
The subject of a further assay is ECV304. Description: Peptide binding assay, ECV304. The class given is cell-based. Particulars: not shown. As for the experimental part: as §1, §2
The test system of assay [1] is TIMP-2 binding site on the surface of endothelial cells. Description: Inhibition of peptide binding by TIMP-2 protein. The following applies: purified TIMP-2 protein 0.05 μM, peptide 0.5 μM. The format is cell-based. As for the experimental part:
as §2

Assay [2] has as its system aortic endothelium of ApoE knockout mice. Description: Phage binding to aortic valves/endothelium (immunohistochemistry, confocal microscopy). The class given is in vivo. As to the method:
(§3) Immunohistochemical analysis for binding was performed on frozen 5 micron sections of ApoE mouse atherosclerotic aortic valve and aorta on poly-L-lysine coated slides. Biotinylated peptide binding to aortic lesions was detected by strepavidin conjugated peroxidase and was developed with DAB substrate (Vector, Burlingame, Calif.). For endothelial identification, biotinylated […] was used and was detected with Texas red conjugated strepavidin. Phage staining was performed with rabbit anti-phage antibody followed by a fluorescein conjugated goat anti-rabbit antibody. The sections were analyzed by laser scanning confocal microscopy.
(§4) To observe phage or peptide association with atherosclerotic lesions, either phage carrying a homing peptide sequence or a circular synthetic peptide were injected into the mice via the tail vein. […] Fixation was in situ by perfusion with 4% paraformaldehyde. The aortas were dissected under a microscope, and the associated fat tissue cleaned while attached. The aorta was then longitudinally opened from aortic valve to iliac bifurcation. The detached aorta was pinned flat.

For another assay, the system named is atherosclerotic lesions. The assay is described as follows: Biotinylated peptide binding in vivo to atherosclerotic lesions (aorta and sections). Also on record: species or system atherosclerotic ApoE knockout mice. As for the experimental part:
as §3, §4
To verify that the peptidyl sequence CAPGPSKSC (SEQ ID NO:4) that is expressed on phage protein m was responsible for the selective localization to atherosclerotic lesions, a biotinylated peptide containing the core sequence CAPGPSKSC (SEQ ID NO:4) was synthesized, folded, disulfide bonds constituted by oxidization, and compositional validity established by mass spectrometry. The peptide was injected into atherosclerotic ApoE knockout mice via tail vein, and the tissues were fixed by in vivo perfusion, and aortas were freed by dissection. The binding of biotinylated peptide to the aorta was visualized with strepavidin conjugated peroxidase and DAB substrate.
The association of this peptide to the atherosclerotic lesions was also analyzed on tissue sections. The experiment was replicated in atherosclerotic ApoE mice by infusing CAPGPSKSC (SEQ ID NO:4) peptide and sections of the aorta were prepared, detected with strepavidin-conjugated peroxidase and developed with DAB substrate. Peptide binding to the surface of atherosclerotic lesions (FIG. 2B) was quite evident. […] These areas are likely involved in lesion formation and differ to some degree in their phenotype compared to that of the overlying endothelium.

Assay [3] deals with human atherosclerotic lesions. Description: Biotinylated peptide binding to human vessel specimens. As for the experimental part: The atherosclerotic regions of human vessels were similarly dissected and pinned on to the dissecting pan. These tissues were then incubated with refolded biotinylated peptides (10.0 μg/ml) overnight at 4° C. The samples were washed three times. An avidin-peroxidase conjugate was used as a second tier probe, and each specimen was visualized with DAB substrate.

For assay [4] the following is noted: non-diabetic insulin resistant monkeys; cited from earlier work.
The mark [5] stands for this setting: sections of aorta, atherosclerotic ApoE mice.

Entries after “also recorded” stand apart in the source; their conditions may differ. No end group written: not given here.

As to “CNQRHQMSC (A synthetic sequence from a combinatorial phage display library.) [SEQ ID NO:336, Eo3-112]”, in the assay with HUVEC endothelial cells, the “peptide binding to endothelial cells (absorbance at 405 nm)” value (“peptide binding to endothelial cells” for short) is “dose dependent binding”. For the same molecule, the “peptide binding to HT1080 cells” value in the assay on fibroblast line HT1080 was “dose dependent binding”. Moreover, the “peptide binding to ECV304” value in the assay with ECV304 was “dose dependent binding”. Further, the “effect of TIMP-2 protein on peptide binding to cells” value (shortened to “effect of TIMP-2 protein”) in assay [1] is listed as “inhibits binding; also recorded: competitively inhibited”. Besides, in assay [2], the “selectivity of localization for atherosclerotic lesion endothelium” value was “associates with a molecule present on both atherosclerotic and normal endothelial surfaces; also recorded: not entirely selective for atherosclerotic lesion endothelium”.

Take “CAPGPSKSC (not fully specified (bridges); cysteine pairing not given here) [SEQ ID NO:4]”: the “peptide binding to lesions of the aorta” value with atherosclerotic lesions (biotinylated synthetic peptide via tail vein, atherosclerotic ApoE knockout mice, streptavidin-peroxidase/DAB) is “like that of phage displaying the peptide; also recorded: replicated the CAPGPSKSC (SEQ ID NO:4) phage binding to the lesions”. The “peptide binding to the surface of atherosclerotic lesions, tissue sections” value in the assay on atherosclerotic lesions (sections of aorta after infusion of peptide, atherosclerotic ApoE mice) was “quite evident”. For the same molecule, in the assay with atherosclerotic lesions (setting [5]), the “pattern of peptide binding within the lesion, tissue sections” value is “most intense in the endothelium overlying the atherosclerotic lesion; also recorded: bind more to the endothelium at the periphery of the lesions and less to the central aspect of the lesions”; the “peptide signal outside the lesions, tissue sections” value is “no substantial signal was evident elsewhere”. For the same molecule, the “peptide binding to atherosclerotic lesion in human arterial specimen” value in assay [3] (biotinylated peptide 10.0 μg/ml on luminal surface, overnight 4° C., avidin-peroxidase/DAB) is recorded as “Bound peptide is apparent; also recorded: preferentially bound to the atherosclerotic plaque”. Moreover, in assay [3] (human vascular samples, biotinylated peptide), the “peptide binding to non-atherosclerotic arterial samples or veins” value is recorded as “no observable binding”.

For “CNHRYMQMC (A synthetic sequence from a combinatorial phage display library.) [SEQ ID NO:344, Eo3-114]”, the “peptide binding to endothelial cells” value in the assay on HUVEC endothelial cells is “dose dependent binding”. In the assay with fibroblast line HT1080, the “peptide binding to HT1080 cells” value is “dose dependent binding”. Further, in the assay with ECV304, the “peptide binding to ECV304” value was “dose dependent binding”. The “effect of TIMP-2 protein” value in assay [1] is reported as “inhibits binding; also recorded: competitively inhibited”.

With `Cc1cc(SCc2sc(-c3ccc(C(F)(F)F)cc3)nc2C)ccc1OCC(=O)O` [GW501516], in assay [4], the “increase of HDL-C” value was 80%; the “increase of apoA-I” value was 43%; the “triglyceride, LDL-C and insulin levels” value was “lowered”.

Regarding “CYNRSDGMC (A synthetic sequence from a combinatorial phage display library.) [SEQ ID NO:464, TIMP-2 homologous peptide]”, in the assay with HUVEC endothelial cells, the “peptide binding to endothelial cells” value is “dose dependent binding”. Also, in the assay with fibroblast line HT1080, the “peptide binding to HT1080 cells” value was “dose dependent binding”. Also, the “peptide binding to ECV304” value with ECV304 was “dose dependent binding”. The “effect of TIMP-2 protein” value in assay [1] is given as “inhibits binding; also recorded: competitively inhibited”.
